# Assay results as given in patent US5242938A, “Derivatives of virginiamycin M1” (Merck & Co., Inc., priority 1992, dated 1993).
# Like-named read-outs stand apart in the source and are kept apart here.
# Columns and labels:
# [1] = biological target: T1, CCK-B (guinea pig cortex) (Cavia porcellus, UniProt H0VZC5); test: [125I]BHCCK-8 radioligand binding, guinea pig cortical preparation; settings: read-out: CCK binding inhibition - IC50, [125I]BHCCK
# T1 construct: guinea pig cortical preparations; from tissue; host or cells: guinea pig brain cortex membranes
# T1 sequence (H0VZC5 1-426): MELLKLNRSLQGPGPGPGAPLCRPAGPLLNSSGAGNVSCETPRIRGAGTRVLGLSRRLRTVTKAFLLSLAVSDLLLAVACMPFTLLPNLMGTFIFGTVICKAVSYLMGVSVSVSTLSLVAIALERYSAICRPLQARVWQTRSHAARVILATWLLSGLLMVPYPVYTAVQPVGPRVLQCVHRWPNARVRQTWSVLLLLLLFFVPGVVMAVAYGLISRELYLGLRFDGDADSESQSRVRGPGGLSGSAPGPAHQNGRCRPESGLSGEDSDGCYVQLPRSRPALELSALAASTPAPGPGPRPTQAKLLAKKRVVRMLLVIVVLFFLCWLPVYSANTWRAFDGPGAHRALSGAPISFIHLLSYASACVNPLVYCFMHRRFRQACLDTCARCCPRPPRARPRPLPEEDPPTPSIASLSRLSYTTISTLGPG
# Experimental: (§1) The resulting supernatant was re-spun at 20,000×g for 20 minutes. […] Incubations were for 40 minutes at 4° C. and were terminated by filtration and washing with ice cold 100 mM saline. […] Incubations were for 30 minutes at room temperature and were terminated by filtration over GF/C filters and washing with 100 mM NaCl.
# [2] = biological target: T1, CCK-B (guinea pig cortex); test: [3H]L-365,260 CCK-B selective antagonist ligand binding, brain membranes; settings: for IC50: read-out: CCK binding inhibition - IC50, [3H]L-365,260
# Experimental: as §1
# CCK-A (rat pancreas) [3] = biological target: T2, CCK-A (rat pancreas) (Rattus norvegicus, UniProt P30551); test: [125I]BHCCK-8 radioligand binding, rat pancreatic preparation; settings: read-out: CCK binding inhibition - IC50, [125I]BHCCK
# T2 construct: from tissue; host or cells: rat pancreas
# T2 sequence (P30551 1-444): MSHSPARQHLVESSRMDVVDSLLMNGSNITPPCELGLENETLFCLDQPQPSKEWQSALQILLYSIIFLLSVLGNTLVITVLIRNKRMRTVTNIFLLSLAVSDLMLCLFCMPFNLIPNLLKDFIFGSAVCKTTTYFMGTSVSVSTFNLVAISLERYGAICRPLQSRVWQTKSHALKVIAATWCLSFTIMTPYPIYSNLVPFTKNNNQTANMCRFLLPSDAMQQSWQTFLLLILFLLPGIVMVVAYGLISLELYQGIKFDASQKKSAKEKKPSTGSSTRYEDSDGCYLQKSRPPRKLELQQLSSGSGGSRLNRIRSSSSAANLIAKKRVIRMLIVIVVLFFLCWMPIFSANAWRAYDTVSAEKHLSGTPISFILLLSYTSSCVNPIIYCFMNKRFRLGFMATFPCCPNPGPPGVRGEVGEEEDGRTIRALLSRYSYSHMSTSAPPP
# Experimental: as §1
# CCK-A (rat pancreas) [4] = biological target: T2, CCK-A (rat pancreas); test: [3H]L-364,718 CCK-A selective antagonist ligand binding, pancreas; settings: read-out: CCK binding inhibition - IC50, [3H]L-364,718
# Experimental: as §1
# Bacillus sp. (Mb 633) = test: Agar diffusion disc assay, Baci 633; assay type: cell-based; settings: @ 20 g/disc
# Experimental: (§2) Cultures employed in evaluating antimicrobial activity included plant pathogens, human and animal opportunistic pathogens and selected laboratory strains having specific-antibiotic sensitivities or chromosomal or R-plasmid-mediated resistances. […] The agar diffusion MIC's were determined using the method described by Barry in Anitbiotics in Laboratory Medicine, 2nd Ed., Ed. V. Lorian, pp. 1-63, William & Wilkins, Baltimore, 1986. Each test compound was dissolved in methanol to a concentration of 1 mg/ml. Serial dilutions of these compounds were also made to determine an agar diffusion MIC. 20 μl of each dilution was pipetted on to 6 mm paper discs, air dried and placed onto the surface of an agar plate seeded with the appropriate bacteria (~10^6 cfu). Seeded agar plates were incubated overnight (~18 hours) at 25° C. Zone sizes were measured to the nearest mm. Each compound was tested in triplicate and the results shown represent the mean.
# [5] = test system: Staphylococcus aureus (Mb 108, ATCC 6538P); test: Agar diffusion disc assay, Sta 108; assay type: cell-based; settings: @ 20 g/disc
# Experimental: as §2
# [6] = test system: Bacillus subtilis (Mb 964, ATCC 6633); test: Agar diffusion disc assay, Subt 964; assay type: cell-based; settings: @ 20 g/disc
# Experimental: as §2
# [7] = test system: Micrococcus luteus (Mb 1101, ATCC 9341); test: Agar diffusion disc assay, Micr 1101; assay type: cell-based; settings: for MIC: read-out: Agar Diffusion MIC versus Micrococcus luteus
# Experimental: as §2
# [8] = test system: Staphylococcus aureus (Mb 2983); test: Agar diffusion disc assay, Sta 2983; assay type: cell-based; settings: @ 20 g/disc
# Experimental: as §2
# [9] = test system: Corynebacterium pseudodiphtheriticum (Mb 261, ATCC 9742); test: Agar diffusion disc assay, Cory 261; assay type: cell-based; design: Inhibition zone diameter, Cory 261: dose or concentration left out as unconfirmed
# Experimental: as §2
# [10] = test system: Streptococcus faecium (Mb 2820); test: Agar diffusion disc assay, Str 2820; assay type: cell-based; design: Inhibition zone diameter, Str 2820: dose or concentration left out as unconfirmed
# Experimental: as §2
# [11] = test system: Streptococcus agalactiae (Mb 2875); test: Agar diffusion disc assay, Str 2875; assay type: cell-based
# Experimental: as §2
# [12] = test system: Salmonella gallinarum (Mb 1287); test: Agar diffusion disc assay, Salm 1287; assay type: cell-based; settings: @ 20 g/disc
# Experimental: as §2
# [13] = test system: Escherichia coli (Mb 1418); test: Agar diffusion disc assay, Coli 1418; assay type: cell-based; settings: @ 20 g/disc
# Experimental: as §2
# [14] = test system: Pseudomonas stutzeri (Mb 1231, ATCC 11607); test: Agar diffusion disc assay, Pseu 1231; assay type: cell-based; settings: @ 20 g/disc
# Experimental: as §2
# [15] = test system: En terobacter aergenes (Mb 835); test: Agar diffusion disc assay, Ent 835; assay type: cell-based; settings: @ 20 g/disc
# Experimental: as §2
smiles,measurement,setting,value
"CC1=C\[C@@H](O)CC(O)Cc2nc(co2)C(=O)N2CCC=C2C(=O)O[C@H](C(C)C)[C@H](C)/C=C/C(=O)NC\C=C\1 (single isomer, unassigned) [Example 14B]",IC50,[1],400 nM
same,"A.R. = agonist ratio = IC50([3H]L365,260)/IC50([125I]CCK)",[2],1
same,IC50,[2],530 nM
same,IC50,CCK-A (rat pancreas) [3],> 3000 nM
same,IC50,CCK-A (rat pancreas) [4],> 3000 nM
same,"Inhibition zone diameter, Baci 633",Bacillus sp. (Mb 633),0 mm
same,"Inhibition zone diameter, Sta 108",[5],22 mm
same,"Inhibition zone diameter, Subt 964",[6],0 mm
same,Mean of triplicate zone size versus Micrococcus luteus,"[7]; 1.25 μg/disc, 25° C., ~18 hours",22 mm
same,Mean of triplicate zone size versus Micrococcus luteus,"[7]; 2.50 μg/disc, 25° C., ~18 hours",25 mm
same,Mean of triplicate zone size versus Micrococcus luteus,"[7]; 5.00 μg/disc, 25° C., ~18 hours",28 mm
same,Mean of triplicate zone size versus Micrococcus luteus,"[7]; 10.0 μg/disc, 25° C., ~18 hours",30 mm
same,Mean of triplicate zone size versus Micrococcus luteus,"[7]; 20.0 μg/disc, 25° C., ~18 hours",32 mm
same,"Inhibition zone diameter, Micr 1101",[7]; @ 20 µg/disc,35 mm
same,MIC,[7],0.24 µM
same,"Inhibition zone diameter, Sta 2983",[8],11 mm
same,"Inhibition zone diameter, Cory 261",[9],26 mm
same,"Inhibition zone diameter, Str 2820",[10],15 mm
same,"Inhibition zone diameter, Str 2875",[11]; @ 20 µg/disc,18 mm
same,"Inhibition zone diameter, Salm 1287",[12],0 mm
same,"Inhibition zone diameter, Coli 1418",[13],0 mm
same,"Inhibition zone diameter, Pseu 1231",[14],0 mm
same,"Inhibition zone diameter, Ent 835",[15],0 mm
CC(=O)OC1=Cc2nc(co2)C(=O)N2CCC=C2C(=O)O[C@H](C(C)C)[C@H](C)/C=C/C(=O)NC/C=C/C(C)=C/[C@@H](OC(C)=O)C1 [Example 1],IC50,[1],800 nM
same,"A.R. = agonist ratio = IC50([3H]L365,260)/IC50([125I]CCK)",[2],> 25
same,"percentage in parentheses beside >3.0, [3H]L-365,260 (inhibition at top concentration, not defined)",[2]; beside IC50 >3.0,13%
same,IC50,[2],> 3000 nM
same,IC50,CCK-A (rat pancreas) [3],> 3000 nM
same,IC50,CCK-A (rat pancreas) [4],> 3000 nM
same,zone of inhibition at 20 µg/disc,"Bacillus sp. (Mb 633); Bacillus, 18 h, read-out: Inhibition zone diameter, Baci 633",0 mm
same,zone of inhibition at 20 µg/disc,"[5]; Staphylococcus aureus, ATCC6538P, 18 h, read-out: Inhibition zone diameter, Sta 108",9 mm
same,zone of inhibition at 20 µg/disc,"[6]; Bacillus subtilis, ATCC6633, 18 h, read-out: Inhibition zone diameter, Subt 964",0 mm
same,zone of inhibition at 20 µg/disc,"[7]; Micrococcus luteus, ATCC9341, 18 h, @ 20 g/disc, read-out: Inhibition zone diameter, Micr 1101",17 mm
same,MIC,"[7]; Micrococcus luteus, ATCC9341, 18 h",1.92 µM
same,zone of inhibition at 5 µg/disc,"[7]; Micrococcus luteus, ATCC9341, 5.00 μg/disc, 25° C., ~18 hours, read-out: Mean of triplicate zone size versus Micrococcus luteus",12 mm
same,zone of inhibition at 10 µg/disc,"[7]; Micrococcus luteus, ATCC9341, 10.0 μg/disc, 25° C., ~18 hours, read-out: Mean of triplicate zone size versus Micrococcus luteus",15 mm
same,zone of inhibition at 20 µg/disc,"[7]; Micrococcus luteus, ATCC9341, 20.0 μg/disc, 25° C., ~18 hours, read-out: Mean of triplicate zone size versus Micrococcus luteus",16 mm
same,zone of inhibition at 20 µg/disc,"[8]; Staphylococcus aureus, 18 h, read-out: Inhibition zone diameter, Sta 2983",0 mm
same,zone of inhibition at 20 µg/disc,"[9]; Corynebacterium pseudodiphtheriticum, ATCC9742, 18 h, @ 20 g/disc, read-out: Inhibition zone diameter, Cory 261",14 mm
same,zone of inhibition at 20 µg/disc,"[10]; Enterococcus faecium, 18 h, @ 20 g/disc, read-out: Inhibition zone diameter, Str 2820",0 mm
same,zone of inhibition at 20 µg/disc,"[11]; Streptococcus agalactiae, 18 h, @ 20 g/disc, read-out: Inhibition zone diameter, Str 2875",0 mm
same,zone of inhibition at 20 µg/disc,"[12]; Salmonella enterica, GALLINARUM, 18 h, read-out: Inhibition zone diameter, Salm 1287",0 mm
same,zone of inhibition at 20 µg/disc,"[13]; Escherichia coli, 18 h, read-out: Inhibition zone diameter, Coli 1418",0 mm
same,zone of inhibition at 20 µg/disc,"[14]; Stutzerimonas stutzeri, ATCC11607, 18 h, read-out: Inhibition zone diameter, Pseu 1231",0 mm
same,zone of inhibition at 20 µg/disc,"[15]; 18 h, read-out: Inhibition zone diameter, Ent 835",0 mm
